Legend:
[1] = Test B: Cytotoxicity Assay; assay type: cell-based; conditions: human, uninfected MT-4 cells, same protocol as Test A, CellTiter-Glo
Experimental: (§1) For the antiviral assay, 40 μL of 1× test concentration of 3-fold serially diluted compound in culture medium with 10% FBS was added to each well of a 384-well plate (10 concentrations) in quadruplicate. MT-4 cells were next mixed with HIV-IIIb at an m.o.i of 0.003 for 1 hour, after which time 35 μL of virus/cell mixture (2000 cells) was immediately added to each well containing 40 μL of diluted compound. The plates were then incubated at 37° C. for 5 days. After 5 days of incubation, 25 μl of 2× concentrated CellTiter-Glo™ Reagent (catalog #G7571, Promega Biosciences, Inc., Madison, Wis.) was added to each well containing MT-4 cells. Cell lysis was carried out by incubating at room temperature for 10 min and then chemiluminescence was read.
Compound cytotoxicity and the corresponding CC50 values was determined using the same protocol as described in the antiviral assay (Test A) except that uninfected cells were used.

[2] = system: HIV-IIIb; assay: Test A: Antiviral Assay in MT4 Cells; assay type: cell-based, HIV-1; conditions: Human immunodeficiency virus 1, IIIB, MT4, 120 h, read-out: % inhibition at 3 μM
Experimental: as §1

SMILES	CC50 at 5 days [1]	inhibition at 3 µM [2]
NC(=O)c1cc(-c2ccc(N)nc2[C@H](Cc2cc(F)cc(F)c2)NC(=O)Cc2c[nH]c3ccc(F)cc23)ccc1F [Compound 1H, (S)-5-(6-amino-2-(2-(3,5-difluorophenyl)-1-(2-(5-fluoro-1H-indol-3-yl)acetamido)ethyl)pyridin-3-yl)-2-fluorobenzamide]	22.1 µM	98%
NC(=O)c1cc(-c2ccc(N)nc2[C@@H](Cc2cc(F)cc(F)c2)NC(=O)Cc2c[nH]c3ccc(F)cc23)ccc1F [Compound 2, (R)-5-(6-amino-2-(2-(3,5-difluorophenyl)-1-(2-(5-fluoro-1H-indol-3-yl)acetamido)ethyl)pyridin-3-yl)-2-fluorobenzamide]	25.2 µM	0%
Nc1ccc(-c2ccc(Cl)cc2)c(C(Cc2cc(F)cc(F)c2)NC(=O)Cc2c[nH]c3ccc(F)cc23)n1 (stereo not shown) [Compound 3, N-(1-(6-amino-3-(4-chlorophenyl)pyridin-2-yl)-2-(3,5-difluorophenyl)ethyl)-2-(5-fluoro-1H-indol-3-yl)acetamide]	9.34 µM	87%
NC(=O)c1cccc(-c2ccc(N)nc2C(Cc2cc(F)cc(F)c2)NC(=O)Cc2c[nH]c3ccc(F)cc23)c1 (stereo not shown) [Compound 4, 3-(6-amino-2-(2-(3,5-difluorophenyl)-1-(2-(5-fluoro-1H-indol-3-yl)acetamido)ethyl)pyridin-3-yl)benzamide]	13.1 µM	94%
Nc1ccc(-c2cccc(S(N)(=O)=O)c2)c(C(Cc2cc(F)cc(F)c2)NC(=O)Cc2c[nH]c3ccc(F)cc23)n1 (stereo not shown) [Compound 5, N-(1-(6-amino-3-(3-sulfamoylphenyl)pyridin-2-yl)-2-(3,5-difluorophenyl)ethyl)-2-(5-fluoro-1H-indol-3-yl)acetamide]	28.7 µM	87%
Nc1ccc(-c2cccc(CO)c2)c(C(Cc2cc(F)cc(F)c2)NC(=O)Cc2c[nH]c3ccc(F)cc23)n1 (stereo not shown) [Compound 6, N-(1-(6-amino-3-(3-(hydroxymethyl)phenyl)pyridin-2-yl)-2-(3,5-difluorophenyl)ethyl)-2-(5-fluoro-1H-indol-3-yl)acetamide]	14.4 µM	59%
Nc1ccc(-c2ccc(Oc3ccccc3)cc2)c(C(Cc2cc(F)cc(F)c2)NC(=O)Cc2c[nH]c3ccc(F)cc23)n1 (stereo not shown) [Compound 7, N-(1-(6-amino-3-(4-phenoxyphenyl)pyridin-2-yl)-2-(3,5-difluorophenyl)ethyl)-2-(5-fluoro-1H-indol-3-yl)acetamide]	11.5 µM	37%
Nc1ccc(-c2cccc(OCC(F)(F)F)c2)c(C(Cc2cc(F)cc(F)c2)NC(=O)Cc2c[nH]c3ccc(F)cc23)n1 (stereo not shown) [Compound 8, N-(1-(6-amino-3-(3-(2,2,2-trifluoroethoxy)phenyl)pyridin-2-yl)-2-(3,5-difluorophenyl)ethyl)-2-(5-fluoro-1H-indol-3-yl)acetamide]	11.7 µM	50%
Nc1ccc(-c2cccc(F)c2)c(C(Cc2cc(F)cc(F)c2)NC(=O)Cc2c[nH]c3ccc(F)cc23)n1 (stereo not shown) [Compound 9, N-(1-(6-amino-3-(3-fluorophenyl)pyridin-2-yl)-2-(3,5-difluorophenyl)ethyl)-2-(5-fluoro-1H-indol-3-yl)acetamide]	17.5 µM	41%
COc1cc(-c2ccc(N)nc2C(Cc2cc(F)cc(F)c2)NC(=O)Cc2c[nH]c3ccc(F)cc23)ccn1 (stereo not shown) [Compound 10, N-(1-(6-amino-2′-methoxy-[3,4′-bipyridin]-2-yl)-2-(3,5-difluorophenyl)ethyl)-2-(5-fluoro-1H-indol-3-yl)acetamide]	23.8 µM	38%
COCCNc1ncc(-c2ccc(F)c(C(N)=O)c2)c([C@@H](Cc2cc(F)cc(F)c2)NC(=O)Cn2nc(C(F)(F)F)c3c2CCCC3)n1 [Compound 11J, (R)-5-(4-(2-(3,5-difluorophenyl)-1-(2-(3-(trifluoromethyl)-4,5,6,7-tetrahydro-1H-indazol-1-yl)acetamido)ethyl)-2-((2-methoxyethyl)amino)pyrimidin-5-yl)-2-fluorobenzamide]	16.3 µM	0%
COCCNc1ncc(-c2ccc(F)c(C(N)=O)c2)c([C@H](Cc2cc(F)cc(F)c2)NC(=O)Cn2nc(C(F)F)c3c2C(F)(F)CCC3(F)F)n1 [Compound 12E, (S)-5-(4-(1-(2-(3-(difluoromethyl)-4,4,7,7-tetrafluoro-4,5,6,7-tetrahydro-1H-indazol-1-yl)acetamido)-2-(3,5-difluorophenyl)ethyl)-2-((2-methoxyethyl)amino)pyrimidin-5-yl)-2-fluorobenzamide]	18.2 µM	86%
NC(=O)c1cc(-c2cnc(NCC3CC3)nc2[C@H](Cc2cc(F)cc(F)c2)NC(=O)Cn2nc(C(F)F)c3c2C(F)(F)CCC3(F)F)ccc1F [Compound 13B, (S)-5-(2-((cyclopropylmethyl)amino)-4-(1-(2-(3-(difluoromethyl)-4,4,7,7-tetrafluoro-4,5,6,7-tetrahydro-1H-indazol-1-yl)acetamido)-2-(3,5-difluorophenyl)ethyl)pyrimidin-5-yl)-2-fluorobenzamide]	7.72 µM	42%
CNc1ncc(-c2ccc(F)c(C(N)=O)c2)c([C@H](Cc2cc(F)cc(F)c2)NC(=O)Cn2nc(C(F)F)c3c2C(F)(F)CCC3(F)F)n1 [Compound 14B, (S)-5-(4-(1-(2-(3-(difluoromethyl)-4,4,7,7-tetrafluoro-4,5,6,7-tetrahydro-1H-indazol-1-yl)acetamido)-2-(3,5-difluorophenyl)ethyl)-2-(methylamino)pyrimidin-5-yl)-2-fluorobenzamide]	28.6 µM	89%
NC(=O)c1cc(-c2cnc(N3CC4(COC4)C3)nc2[C@H](Cc2cc(F)cc(F)c2)NC(=O)Cn2nc(C(F)F)c3c2C(F)(F)CCC3(F)F)ccc1F [Compound 15B, (S)-5-(4-(1-(2-(3-(difluoromethyl)-4,4,7,7-tetrafluoro-4,5,6,7-tetrahydro-1H-indazol-1-yl)acetamido)-2-(3,5-difluorophenyl)ethyl)-2-(2-Oxa-6-azaspiro[3.3]heptan-6-yl)pyrimidin-5-yl)-2-fluorobenzamide]	36.3 µM	70%
CN(C)CCNc1ncc(-c2ccc(F)c(C(N)=O)c2)c([C@H](Cc2cc(F)cc(F)c2)NC(=O)Cn2nc(C(F)F)c3c2C(F)(F)CCC3(F)F)n1 [Compound 16B, (S)-5-(4-(1-(2-(3-(difluoromethyl)-4,4,7,7-tetrafluoro-4,5,6,7-tetrahydro-1H-indazol-1-yl)acetamido)-2-(3,5-difluorophenyl)ethyl)-2-((2-(dimethylamino)ethyl)amino)pyrimidin-5-yl)-2-fluorobenzamide]	15.4 µM	41%
CC(=O)Oc1ccc(-c2ccc(F)c(C(N)=O)c2)c([C@H](Cc2cc(F)cc(F)c2)NC(=O)Cn2nc(C(F)F)c3c2C(F)(F)CCC3(F)F)n1 [Compound 20B, (S)-5-(3-carbamoyl-4-fluorophenyl)-6-(1-(2-(3-(difluoromethyl)-4,4,7,7-tetrafluoro-4,5,6,7-tetrahydro-1H-indazol-1-yl)acetamido)-2-(3,5-difluorophenyl)ethyl)pyridin-2-yl acetate]	> 53.2 µM	–
NC(=O)c1cc(-c2cnc(NCCN3CCCC3)nc2[C@H](Cc2cc(F)cc(F)c2)NC(=O)Cn2nc(C(F)F)c3c2C(F)(F)CCC3(F)F)ccc1F [Compound 27]	3.5 µM	–
